Data taken from PMC11338861, “Assessment of the potential risk of oteseconazole and two other tetrazole antifungals to inhibit adrenal steroidogenesis and peripheral metabolism of corticosteroids” (Frontiers in Pharmacology, 2024).

Assays:
CYP11B1 = target: T1, CYP11B1 (Homo sapiens, UniProt P15538); experiment: mitochondrial fraction of V79-CYP11B1 cells, 11-DOC to corticosterone, UHPLC-MS/MS; type: cell-based
T1 sequence (P15538 25-503): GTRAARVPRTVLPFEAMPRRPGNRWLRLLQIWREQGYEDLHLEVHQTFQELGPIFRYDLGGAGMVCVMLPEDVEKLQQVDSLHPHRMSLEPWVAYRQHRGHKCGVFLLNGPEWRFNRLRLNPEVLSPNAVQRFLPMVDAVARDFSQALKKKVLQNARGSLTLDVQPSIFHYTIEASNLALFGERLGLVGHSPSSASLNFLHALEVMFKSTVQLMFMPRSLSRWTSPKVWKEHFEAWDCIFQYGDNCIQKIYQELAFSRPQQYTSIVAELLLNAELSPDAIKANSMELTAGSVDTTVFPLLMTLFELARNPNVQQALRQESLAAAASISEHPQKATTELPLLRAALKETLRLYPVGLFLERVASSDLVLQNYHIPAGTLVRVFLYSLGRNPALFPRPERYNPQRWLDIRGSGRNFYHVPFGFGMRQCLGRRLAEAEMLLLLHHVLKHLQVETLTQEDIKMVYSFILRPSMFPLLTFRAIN

CYP11A1 = target: T2, CYP11A1 (Homo sapiens, UniProt P05108); experiment: mitochondrial fraction of transfected V79-4 cells, pregnenolone ELISA; type: cell-based
T2 sequence (P05108 40-521): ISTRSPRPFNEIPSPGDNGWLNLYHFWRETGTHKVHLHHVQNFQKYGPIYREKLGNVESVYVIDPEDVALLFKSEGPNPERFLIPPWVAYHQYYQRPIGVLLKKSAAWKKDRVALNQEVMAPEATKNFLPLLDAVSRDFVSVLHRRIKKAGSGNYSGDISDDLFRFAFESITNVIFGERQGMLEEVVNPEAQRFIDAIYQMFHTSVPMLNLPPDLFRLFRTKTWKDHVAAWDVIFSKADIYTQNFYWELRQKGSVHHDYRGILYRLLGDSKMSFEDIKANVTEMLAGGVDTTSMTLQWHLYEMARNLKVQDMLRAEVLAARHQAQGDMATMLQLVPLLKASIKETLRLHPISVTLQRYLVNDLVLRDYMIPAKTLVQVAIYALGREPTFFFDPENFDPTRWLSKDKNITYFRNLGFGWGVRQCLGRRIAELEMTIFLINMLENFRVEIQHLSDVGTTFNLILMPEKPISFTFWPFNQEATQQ
T2 sequence (P10109 61-184 partner): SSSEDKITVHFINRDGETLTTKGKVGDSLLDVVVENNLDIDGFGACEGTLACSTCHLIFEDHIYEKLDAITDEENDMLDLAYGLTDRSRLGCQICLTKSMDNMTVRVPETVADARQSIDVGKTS

CYP21A2 = target: T3, CYP21A2 (Homo sapiens, UniProt P08686); experiment: cell-free activity assay, microsomes of transfected COS-1 cells, progesterone to 11-DOC; type: biochemical
T3 sequence (P08686 1-495): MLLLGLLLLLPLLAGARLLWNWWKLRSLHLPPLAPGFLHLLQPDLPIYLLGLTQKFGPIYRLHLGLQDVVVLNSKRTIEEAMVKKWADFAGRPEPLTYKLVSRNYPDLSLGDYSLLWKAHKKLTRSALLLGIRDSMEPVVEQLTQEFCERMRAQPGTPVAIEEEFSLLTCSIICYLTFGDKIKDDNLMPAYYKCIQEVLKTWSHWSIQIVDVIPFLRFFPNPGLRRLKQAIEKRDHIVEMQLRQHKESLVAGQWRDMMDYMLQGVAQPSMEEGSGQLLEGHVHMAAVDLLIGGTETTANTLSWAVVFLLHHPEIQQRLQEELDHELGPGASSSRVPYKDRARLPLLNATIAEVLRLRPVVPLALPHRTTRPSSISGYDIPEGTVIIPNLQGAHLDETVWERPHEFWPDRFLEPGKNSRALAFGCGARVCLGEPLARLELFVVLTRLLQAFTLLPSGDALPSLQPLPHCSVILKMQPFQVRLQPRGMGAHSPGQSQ
T3 sequence (P16435 2-677 partner): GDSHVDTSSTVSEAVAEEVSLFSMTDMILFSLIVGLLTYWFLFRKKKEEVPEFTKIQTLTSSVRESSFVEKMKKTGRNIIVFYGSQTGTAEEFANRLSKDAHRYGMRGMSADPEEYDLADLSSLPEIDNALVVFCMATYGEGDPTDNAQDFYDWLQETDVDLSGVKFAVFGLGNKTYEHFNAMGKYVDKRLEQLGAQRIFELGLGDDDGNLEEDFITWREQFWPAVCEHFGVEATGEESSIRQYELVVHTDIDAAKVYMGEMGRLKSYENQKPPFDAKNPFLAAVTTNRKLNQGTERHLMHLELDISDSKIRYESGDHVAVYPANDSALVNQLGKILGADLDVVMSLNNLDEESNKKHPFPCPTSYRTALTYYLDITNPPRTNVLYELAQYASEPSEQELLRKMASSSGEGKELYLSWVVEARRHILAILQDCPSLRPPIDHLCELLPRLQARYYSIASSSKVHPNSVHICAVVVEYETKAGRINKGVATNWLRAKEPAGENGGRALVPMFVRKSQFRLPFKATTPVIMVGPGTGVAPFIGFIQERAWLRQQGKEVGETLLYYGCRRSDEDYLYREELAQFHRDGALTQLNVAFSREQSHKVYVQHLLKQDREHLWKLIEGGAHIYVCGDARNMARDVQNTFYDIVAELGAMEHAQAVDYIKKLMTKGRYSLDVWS

CYP17A1 = target: T4, CYP17A1 (Homo sapiens, UniProt P05093); experiment: […]α-hydroxylase activity, microsomes of transfected COS-1 cells, radiolabeled progesterone, TLC ([…],20-lyase IC50 […]); type: biochemical
T4 sequence (P05093 1-508): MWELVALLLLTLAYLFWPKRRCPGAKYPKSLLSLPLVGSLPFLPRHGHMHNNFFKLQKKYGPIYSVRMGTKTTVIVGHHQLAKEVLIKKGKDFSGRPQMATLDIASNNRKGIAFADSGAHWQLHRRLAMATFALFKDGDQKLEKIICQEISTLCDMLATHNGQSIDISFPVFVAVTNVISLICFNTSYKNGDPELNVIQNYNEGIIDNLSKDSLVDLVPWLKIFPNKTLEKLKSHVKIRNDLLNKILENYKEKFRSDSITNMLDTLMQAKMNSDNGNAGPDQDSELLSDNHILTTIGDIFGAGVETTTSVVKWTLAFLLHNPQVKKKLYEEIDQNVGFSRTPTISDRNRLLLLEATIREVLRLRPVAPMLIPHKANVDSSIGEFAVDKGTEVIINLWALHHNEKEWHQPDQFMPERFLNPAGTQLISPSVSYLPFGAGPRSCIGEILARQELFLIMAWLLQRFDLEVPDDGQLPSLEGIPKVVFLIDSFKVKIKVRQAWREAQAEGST
T4 sequence (P16435 2-677 partner): T3 sequence (P16435 2-677 partner)

inhibition at 10 µM (CYP11A1) [%]	IC50 (CYP21A2) [µM]	IC50 (CYP17A1) [µM]	Structure (SMILES)	mitochondrial fraction of V79-CYP11B1 cells, 11-DOC to corticosterone, UHPLC-MS/ (CYP11B1)
~35	13.8 ± 1.9	13.2 ± 3.9	O[C@@](Cn1cnnn1)(c1ccc(F)cc1F)C(F)(F)c1ccc(-c2ccc(OCC(F)(F)F)cc2)cn1 [oteseconazole]	–
~45	–	–	O[C@@](Cn1cnnn1)(c1ccc(F)cc1F)C(F)(F)c1ccc(-c2ccc(OC(F)(F)F)cc2)cn1 [quilseconazole]	–

Structure (SMILES)	inhibition at 10 µM (CYP11A1) [%]	IC50 (CYP21A2) [µM]	IC50 (CYP17A1) [µM]	mitochondrial fraction of V79-CYP11B1 cells, 11-DOC to corticosterone, UHPLC-MS/ (CYP11B1)
CC(=O)N1CCN(c2ccc(OC[C@H]3CO[C@](Cn4ccnc4)(c4ccc(Cl)cc4Cl)O3)cc2)CC1 (racemic) [ketoconazole, reference compound]	~55	–	–	measuring the conversion of 11-DOC to corticosterone, with ketoconazole serving as positive control
